In ChEMBL document CHEMBL1130374, “Resolution and biological activities of optical isomers of 1,4-diethyl-3,6-epidithiopiperazine-2,5-dione” (1997) one finds Activity and EC50 data, which are given here for four compounds.

Molecules are shown by their SMILES.

For assay [1], the species on record is Mus musculus. Nature of the assay: The extent of apoptosis was determined by evaluating the subdiploid population of propidium iodide stained cells using flow cytometry after 9 hr using thymocytes from mice. The format is functional, Thymocyte. (In flow cytometry, cells or beads pass a laser one at a time.)
Assay [2] is filed under the species Mus musculus. Nature of the assay: Compound was evaluated for macrophage adherence in thioglycolate induced mouse macrophages. As to conditions: read-out: ED50 (the source's name). The format is functional.
In assay [3] the test system is P815. Nature of the assay: Compound was evaluated for Thymidine incorporation in P815 cell lines. Format: functional. As to conditions: Mus musculus, read-out: ED50 (the source's name).
In assay [4] the target is Creatine kinase M-type (Oryctolagus cuniculus) (UniProt P00563). Briefly: Compound was evaluated for interaction with the creatine kinase in rabbit muscle after 6 hr. More on the design: reference not given here.
Chain of Creatine kinase M-type (Oryctolagus cuniculus) (P00563 whole entry, looked up): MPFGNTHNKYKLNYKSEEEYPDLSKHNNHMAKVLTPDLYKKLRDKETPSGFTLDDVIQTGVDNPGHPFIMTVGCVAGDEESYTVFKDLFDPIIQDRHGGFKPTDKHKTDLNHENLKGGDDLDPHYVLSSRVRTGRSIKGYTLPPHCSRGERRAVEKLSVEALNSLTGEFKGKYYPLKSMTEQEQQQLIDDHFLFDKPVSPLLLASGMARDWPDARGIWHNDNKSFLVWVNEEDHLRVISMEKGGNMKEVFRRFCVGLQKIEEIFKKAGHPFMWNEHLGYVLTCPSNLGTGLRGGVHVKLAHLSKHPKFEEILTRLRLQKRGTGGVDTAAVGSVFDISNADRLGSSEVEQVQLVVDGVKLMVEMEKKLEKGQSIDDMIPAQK

For the compound `CCN1C(=O)[C@@H]2SS[C@H]1C(=O)N2CC`, the Activity in assay [1] came to 57%; in assay [4], 34%. Moreover, the figures for the EC50 in assay [2] and in assay [3] were 8 µM and 55 µM, respectively.

Consider `CCN1C(=O)C2SSC1C(=O)N2CC` (racemic), for which the Activity was 54% in assay [1] and 35% in assay [4]. Besides, the EC50 in assay [2] was 2.5 µM; in assay [3], 35 µM.

Consider `CN1C(=O)[C@]23CC4=CC=C[C@H](O)[C@H]4N2C(=O)[C@@]1(CO)SS3` [GLIOTOXIN], for which the Activity in assay [1] amounted to 59%; in assay [4] it was 32%. Moreover, the EC50 in assay [2] is 0.35 µM; in assay [3], 2 µM.

Turning to `CCN1C(=O)[C@H]2SS[C@@H]1C(=O)N2CC`, the Activity turned out to be 53% in assay [1] and 34% in assay [4]. Further, the EC50 in assay [2] was determined as 5 µM; in assay [3] it was 50 µM.
